Measured values: patent publication US20170305992A1, “NOVEL PEPTIDES AND COMBINATION OF PEPTIDES FOR USE IN IMMUNOTHERAPY AGAINST VARIOUS TUMORS” (IMMATICS BIOTECHNOLOGIES GMBH, priority 2015, published 2017)

System: CD8+ T cells
Assay: In vitro T-cell priming assay with aAPCs loaded with peptide/MHC and anti-CD28, pMHC multimer readout (in vitro immunogenicity)
Assay type: cell-based, human
Conditions: for Wells positive [%]: HLA-A*02 restricted peptides, Table 6B; for in vitro immunogenicity: donors: percentage of positive donors; for in vitro immunogenicity: donors / in vitro immunogenicity: wells: HLA class I peptides, Table 6A; for in vitro immunogenicity: wells: percentage of positive wells
Description: In order to obtain information regarding the immunogenicity of the TUMAPs of the present invention, the inventors performed investigations using an in vitro T-cell priming assay based on repeated stimulations of CD8+ T cells with artificial antigen presenting cells (aAPCs) loaded with peptide/MHC complexes and anti-CD28 antibody.
In order to perform in vitro stimulations by artificial antigen presenting cells loaded with peptide-MHC complex (pMHC) and anti-CD28 antibody, the inventors first isolated CD8+ T cells from fresh HLA-A*02 leukapheresis products via positive selection using CD8 microbeads (Miltenyi Biotec, Bergisch-Gladbach, Germany) of healthy donors obtained from the University clinics Mannheim, Germany, after informed consent. PBMCs and isolated CD8+ lymphocytes were incubated in T-cell medium (TCM) until use consisting of RPMI-Glutamax (Invitrogen, Karlsruhe, Germany) supplemented with 10% heat inactivated human AB serum (PAN-Biotech, Aidenbach, Germany), 100 U/ml Penicillin/100 μg/ml Streptomycin (Cambrex, Cologne, Germany), 1 mM sodium pyruvate (CC Pro, Oberdorla, Germany), 20 μg/ml Gentamycin (Cambrex). 2.5 ng/ml IL-7 (PromoCell, Heidelberg, Germany) and 10 U/ml IL-2 (Novartis Pharma, Nürnberg, Germany) were also added to the TCM at this step. Generation of pMHC/anti-CD28 coated beads, T-cell stimulations and readout was performed in a highly defined in vitro system using four different pMHC molecules per stimulation condition and 8 different pMHC molecules per readout condition.
The purified co-stimulatory mouse IgG2a anti human CD28 Ab 9.3 (Jung et al., 1987) was chemically biotinylated using Sulfo-N-hydroxysuccinimidobiotin as recommended by the manufacturer (Perbio, Bonn, Germany). Beads used were 5.6 μm diameter streptavidin coated polystyrene particles (Bangs Laboratories, Ill., USA).
pMHC used for positive and negative control stimulations were A*0201/MLA-001 (peptide […] (SEQ ID NO. 289) from modified Melan-A/MART-1) and A*0201/DDX5-001 ([…] from DDX5, SEQ ID NO. 290), respectively.
800.000 beads/200 μl were coated in 96-well plates in the presence of 4×12.5 ng different biotin-pMHC, washed and 600 ng biotin anti-CD28 were added subsequently in a volume of 200 μl. Stimulations were initiated in 96-well plates by co-incubating […] CD8+ T cells with 2×10^5 washed coated beads in 200 μl TCM supplemented with 5 ng/ml IL-12 (PromoCell) for 3 days at 37° C. Half of the medium was then exchanged by fresh TCM supplemented with 80 U/ml IL-2 and incubating was continued for 4 days at 37° C. This stimulation cycle was performed for a total of three times. For the pMHC multimer readout using 8 different pMHC molecules per condition, a two-dimensional combinatorial coding approach was used as previously described (Andersen et al., 2012) with minor modifications encompassing coupling to 5 different fluorochromes. Finally, multimeric analyses were performed by staining the cells with Live/dead near IR dye (Invitrogen, Karlsruhe, Germany), CD8-FITC antibody clone SK1 (BD, Heidelberg, Germany) and fluorescent pMHC multimers. For analysis, a BD LSRII SORP cytometer equipped with appropriate lasers and filters was used. Peptide specific cells were calculated as percentage of total CD8+ cells. Evaluation of multimeric analysis was done using the FlowJo software (Tree Star, Oreg., USA). In vitro priming of specific multimer+CD8+ lymphocytes was detected by comparing to negative control stimulations.
Exemplary flow cytometry results after TUMAP-specific multimer staining for peptides of the invention are shown in FIG. 3 together with corresponding negative controls.

With “4 (VLFGELPAL; listed as Homo sapiens) [compound 4]” the “Wells positive [%]” value was “+ (<20% = +)”.
“7 (ALLQALMEL; listed as Homo sapiens) [compound 7]” was tested, and the “Wells positive [%]” value was “++ (20% - 49% = ++)”.
In the case of “9 (SLITGQDLLSV; listed as Homo sapiens) [compound 9]”, the “Wells positive [%]” value is reported as “+ (<20% = +)”.
With “11 (LLDPKTIFL; listed as Homo sapiens) [compound 11]” the “Wells positive [%]” value was “++ (20% - 49% = ++)”.
In the case of “14 (YTFSGDVQL; listed as Homo sapiens) [compound 14]”, the “Wells positive [%]” value is reported as “+ (<20% = +)”.
For “17 (GLLPSAESIKL; listed as Homo sapiens) [compound 17]”, the “Wells positive [%]” value was “+ (<20% = +)”.
With “27 (GLLGKVTSV; listed as Homo sapiens) [compound 27]” the “Wells positive [%]” value was “+ (<20% = +)”.
For “29 (KMISAIPTL; listed as Homo sapiens) [compound 29]”, the “Wells positive [%]” value was “+ (<20% = +)”.
In the case of “35 (VIIKGLEEI; listed as Homo sapiens) [compound 35]”, the “Wells positive [%]” value is reported as “+ (<20% = +)”.
In the case of “48 (KISDFGLATV; listed as Homo sapiens) [compound 48]”, the “Wells positive [%]” value is reported as “++ (20% - 49% = ++)”.
For “50 (ILLSVLHQL; listed as Homo sapiens) [compound 50]”, the “Wells positive [%]” value was “+ (<20% = +)”.
In the case of “66 (AMFPDTIPRV; listed as Homo sapiens) [compound 66]”, the “Wells positive [%]” value is reported as “+ (<20% = +)”.
For “77 (ALYGNVQQV; listed as Homo sapiens) [compound 77]”, the “Wells positive [%]” value was “+ (<20% = +)”.
In the case of “89 (SLAETIFIV; listed as Homo sapiens) [compound 89]”, the “Wells positive [%]” value is reported as “+ (<20% = +)”.
For “92 (RLFEEVLGV; listed as Homo sapiens) [compound 92]”, the “Wells positive [%]” value was “++ (20% - 49% = ++)”.
In the case of “97 (KLFEKSTGL; listed as Homo sapiens) [compound 97]”, the “Wells positive [%]” value is reported as “+ (<20% = +)”.
For “101 (SLLEVNEASSV; listed as Homo sapiens) [compound 101]”, the “Wells positive [%]” value was “+ (<20% = +)”.
For “102 (GLYPVTLVGV; listed as Homo sapiens) [compound 102]”, the “Wells positive [%]” value was “+ (<20% = +)”.
For “117 (TLLEGISRA; listed as Homo sapiens) [compound 117]”, the “Wells positive [%]” value was “++ (20% - 49% = ++)”.
“121 (ALYVQAPTV; listed as Homo sapiens) [compound 121]” was tested, and the “Wells positive [%]” value was “+ (<20% = +)”.
For “157 (ILQDGQFLV; listed as Homo sapiens) [compound 157]”, the “Wells positive [%]” value was “+ (<20% = +)”.
For “166 (LLGDSSFFL; listed as Homo sapiens) [compound 166]”, the “Wells positive [%]” value was “++ (20% - 49% = ++)”.
For “233 (SLFESLEYL; listed as Homo sapiens) [compound 233]”, the “Wells positive [%]” value was “+ (<20% = +)”.
For “234 (VLLNEILEQV; listed as Homo sapiens) [compound 234]”, the “Wells positive [%]” value was “++ (20% - 49% = ++)”.
In the case of “236 (KMSELQTYV; listed as Homo sapiens) [compound 236]”, the “Wells positive [%]” value is reported as “+ (<20% = +)”.
With “242 (KLQEEIPVL; listed as Homo sapiens) [compound 242]” the “Wells positive [%]” value was “+ (<20% = +)”.
In the case of “246 (ALAGIVTNV; listed as Homo sapiens) [compound 246]”, the “Wells positive [%]” value is reported as “+ (<20% = +)”.
“248 (VLMQDSRLYL; listed as Homo sapiens) [compound 248]” was tested, and the “Wells positive [%]” value was “++ (20% - 49% = ++)”.
“251 (LLWGNLPEI; listed as Homo sapiens) [compound 251]” was tested, and the “Wells positive [%]” value was “++ (20% - 49% = ++)”.
With “253 (KLLAVIHEL; listed as Homo sapiens) [compound 253]” the “Wells positive [%]” value was “++ (20% - 49% = ++)”.
In the case of “254 (ALGDKFLLRV; listed as Homo sapiens) [compound 254]”, the “Wells positive [%]” value is reported as “+ (<20% = +)”.
In the case of “255 (FLMKNSDLYGA; listed as Homo sapiens) [compound 255]”, the “Wells positive [%]” value is reported as “+ (<20% = +)”.
With “257 (KLIDHQGLYL; listed as Homo sapiens) [compound 257]” the “Wells positive [%]” value was “+ (<20% = +)”.
“260 (ALNESLVEC; listed as Homo sapiens) [compound 260]” was tested, and the “Wells positive [%]” value was “+ (<20% = +)”.
In the case of “261 (GLAALAVHL; listed as Homo sapiens) [compound 261]”, the “Wells positive [%]” value is reported as “++ (20% - 49% = ++)”.
With “263 (SIIEYLPTL; listed as Homo sapiens) [compound 263]” the “Wells positive [%]” value was “+ (<20% = +)”.
In the case of “264 (TLHDQVHLL; listed as Homo sapiens) [compound 264]”, the “Wells positive [%]” value is reported as “+ (<20% = +)”.
In the case of “267 (YLLDMPLWYL; listed as Homo sapiens) [compound 267]”, the “Wells positive [%]” value is reported as “+ (<20% = +)”.
“275 (AVPPPPSSV; listed as Homo sapiens) [compound 275]” was tested, and the “Wells positive [%]” value was “++ (20% - 49% = ++)”.
In the case of “287 (KIQEILTQV; listed as Homo sapiens) [compound 287]”, the “in vitro immunogenicity: donors” value is reported as “+++ (50% - 69% = +++)” and the “in vitro immunogenicity: wells” value is reported as “+ (<20% = +)”.
With “288 (SLYKGLLSV; listed as Homo sapiens) [compound 288]” the “in vitro immunogenicity: donors” value was “++++ (> = 70% = ++++)” and the “in vitro immunogenicity: wells” value was “++ (21% - 49% = ++)”.
